This is an account of results in publication PMC6995558, “Biological Evaluation, Molecular Docking, and SAR Studies of Novel 2-(2,4-Dihydroxyphenyl)-1H- Benzimidazole Analogues” (Biomolecules, 2019).

The IC50 is the concentration needed to halve the response being measured.

For one data set, the target named is T1, AChE (Homo sapiens, UniProt P22303).
T1 construct: Acetylcholinesterase (AChE, E.C. 3.1.1.7, from human erythrocytes); purchased Sigma-Aldrich (Steinheim, Germany); host or cells: human erythrocytes (natural source)
T1 sequence (P22303 32-617 isoform P22303-2 limits assumed): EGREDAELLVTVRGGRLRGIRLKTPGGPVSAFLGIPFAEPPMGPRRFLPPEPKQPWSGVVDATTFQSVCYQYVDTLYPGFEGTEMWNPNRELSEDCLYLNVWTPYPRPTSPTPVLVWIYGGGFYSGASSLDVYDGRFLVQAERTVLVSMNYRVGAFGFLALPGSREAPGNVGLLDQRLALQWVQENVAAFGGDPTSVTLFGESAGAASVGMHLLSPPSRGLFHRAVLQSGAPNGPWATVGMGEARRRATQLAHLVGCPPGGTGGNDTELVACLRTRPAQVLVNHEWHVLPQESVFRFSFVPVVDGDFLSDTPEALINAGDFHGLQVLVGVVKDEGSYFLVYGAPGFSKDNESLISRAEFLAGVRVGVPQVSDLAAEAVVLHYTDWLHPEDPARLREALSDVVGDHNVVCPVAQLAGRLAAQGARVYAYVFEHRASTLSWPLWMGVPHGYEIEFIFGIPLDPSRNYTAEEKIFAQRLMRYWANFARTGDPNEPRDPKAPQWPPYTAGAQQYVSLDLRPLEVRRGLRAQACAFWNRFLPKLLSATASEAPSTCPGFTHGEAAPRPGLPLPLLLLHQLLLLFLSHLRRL
Kind of data set: Kinetic characterization of AChE inhibition (Lineweaver–Burk). Type of data set: biochemical. Particulars: for υmax: AChE; for Type of AChE inhibition: Lineweaver–Burk plots analysis. On the procedure:
The kinetic analysis was evaluated according to the Ellman’s method. Plots of 1/velocity versus the reciprocal substrate concentration were constructed at different final concentrations of the ATC iodide in the range of 100–10 µM. […] The tested medium contained DTNB solution (0.4 mg/mL), AChE solution (2 U/mL) or BuChE solution (4 U/mL), solution of the examined compound, and different concentrations of the ATC iodide substrate solution. Absorbance was detected at 412 nm at room temperature after 7 min. The obtained data were calculated and presented on the Lineweaver–Burk plot. The determined the Michaelis-Menten constant (KM) and the maximum velocity of the enzyme (υmax) values were used to define the type of enzyme inhibition.
The mechanism of AChE inhibition was investigated for inhibitors 1 and 5 as the most valuable compounds. […]

The next data set concerns the target T2, BuChE (Equus caballus, UniProt P81908).
T2 construct: butyrylcholinesterase (BuChE, E.C. 3.1.1.8, from equine serum); purchased Sigma-Aldrich (Steinheim, Germany); host or cells: equine serum (natural source)
Kind of data set: Kinetic characterization of BuChE inhibition (Lineweaver–Burk). Type of data set: biochemical. Particulars: for υmax: BuChE; for Mechanism of BuChE inhibition: Lineweaver–Burk plots analysis. On the procedure: The kinetic analysis was evaluated according to the Ellman’s method. Plots of 1/velocity versus the reciprocal substrate concentration were constructed at different final concentrations of the ATC iodide in the range of 100–10 µM. The studies were carried out using the final concentrations of 1 inhibitor: (AChE: 0.25, 1.0 µM; BuChE: 0.25, 1.2 µM) and 5 (AChE: 0.1, 1.0 µM; BuChE: 0.25, 0.55 µM) and without it. The tested medium contained DTNB solution (0.4 mg/mL), AChE solution (2 U/mL) or BuChE solution (4 U/mL), solution of the examined compound, and different concentrations of the ATC iodide substrate solution. Absorbance was detected at 412 nm at room temperature after 7 min. The obtained data were calculated and presented on the Lineweaver–Burk plot. The determined the Michaelis-Menten constant (KM) and the maximum velocity of the enzyme (υmax) values were used to define the type of enzyme inhibition.
The mechanism of AChE inhibition was investigated for inhibitors 1 and 5 as the most valuable compounds. The Lineweaver–Burk plots present 1/velocity versus 1/substrate concentrations in the range of 100–10 µM for compounds 5 (0.1, 1.0 µM) and 1 (0.25, 1.0 µM) and without inhibitors (0 µM) (Figure 2).

Data set [1] addresses T3, Acetylcholinesterase (AChE, E.C. 3.1.1.7, from human erythrocytes) (Homo sapiens, UniProt P22303).
T3 construct: Acetylcholinesterase (AChE, E.C. 3.1.1.7, from human erythrocytes); purchased Sigma-Aldrich (Steinheim, Germany); host or cells: human erythrocytes (natural source)
The data set can be described thus: biochemical. Type of data set: biochemical. Particulars: for Selectivity for AChE: IC50(BuChE)/IC50(AChE); for IC50: means ± SD of three independent experiments. On the procedure:
(§1) The details were described previously.
(§2) Their potency was determined using the modified Ellman’s method and expressed as the half of maximal inhibitory concentration, IC50 [34].

Data set [2] concerns the target T4, Amyloid β-peptide (1–42) (Aβ42) (Homo sapiens, UniProt P05067).
T4 construct: Amyloid β-peptide, (1–42) (Aβ42), was purchased from Aldrich; purchased Aldrich
The data set can be described thus: biochemical. Particulars: ThT fluorescence, 24 h at 37 °C; means ± SD of three experiments; read-out: IC50(Aβ(1–42)) self-induced aggregation. On the procedure: Amyloid β-peptide, (1–42) (Aβ42), was purchased from Aldrich. Aβ42 was diluted in the phosphate buffer (pH 8.0) to obtain a 125.8 µM solution. The compounds under study were first dissolved in a small amount of methanol, and then further diluted in the phosphate buffer to the final concentration of 5–160 μM. To study the Aβ42 aggregation inhibition, the fluorescence emission of thioflavin T (ThT) was followed with curcumin as the reference compound [35, 36]. At first, the Aβ42 (10 μL) samples and the tested compounds (10 μL) were diluted with the phosphate buffer (60 μL) and then they were incubated for 24 h at 37 °C without stirring. As for the control, a sample of the peptide was incubated without the inhibitor. The tests were carried out in black, flat-bottom, 96-well plates. Then 20 µL of 2.5 µM ThT in 50 mM glycine–NaOH (pH 8.5) was added and incubated for 5 min. Fluorescence was monitored with the excitation at 446 nm and the emission at 490 nm. A time scan of fluorescence was performed and the intensity values reached the plateau (300 s). […]. The reported values were obtained as the mean ± SD of triplicate of three independent experiments.
Nowadays, the amyloid hypothesis has become the dominating paradigm for understanding AD [44]. Aβ(1–42) is the most amyloidogenic Aβ fragment found in the AD plaques. […].

Data set [3] can be described thus: RP-18 HPLC chromatography lipophilicity estimation. The format is physicochemical. Particulars: for −S (slope): methanol/acetate buffer pH 4.0; for log kw (intercept): methanol/acetate buffer pH 4.0, extrapolated to pure water. On the procedure:
The Eurosil Bioselect C18 (5 μm, 300 × 4.6 mm) column was used as the stationary phase. The mobile phase consisted of different volume mixtures of methanol and 20 mM acetate buffer as the aqueous phase to give pH 4.0. The organic modifier concentration ranged from 0.30 to 0.75, depending on the structure of the compound at 0.05 (0.1) intervals. The flow rate was 0.5 cm^3·min^−1 at room temperature. Measurements were made at 292 nm. The retention time of an unretained solute (t0) was determined by the injection of a small amount of acetone dissolved in water. […] This is described by the Soczewiński–Wachtmeister dependence: log k = log kw + S (% organic modifier)(1) in which log kw is the retention factor of a solute with pure water as the mobile phase (intercept) and S is the regression curve (slope). The log k values were calculated as log k = log (tR − t0)/t0, where tR is the retention time of a solute and t0 is the retention time of an unretained solute.
To find the structure–activity relationships, some quantities of the compounds were estimated (Table 5). They included the lipophilicity parameter log kw obtained by RP-HPLC and calculated in silico log P, the topological polar surface area (tPSA), and the molar refractivity (MR) (Table 5). The log kw and S parameters obtained by the extrapolation technique are commonly used as lipophilicity descriptors.

The nature of data set [4]: In vitro antioxidant activity assay (DPPH radical scavenging). Particulars: DPPH 100 μM in methanol, 37 °C, 30 min; means ± SD of three experiments; read-out: IC50(DPPH) radical scavenging effect. On the procedure:
Antioxidant activity of each compound and standards (rutin) was assessed based on the radical scavenging effect of stable DPPH free radical. An amount of 10 μL of each tested compound or standard series of different concentrations (from 0.0 to 100 µM) was added to 9 mL of methanol solution of 2,2-diphenyl-1-picrylhydrazyl (DPPH) (100 μM). After incubation at 37 °C for 30 min, decrease in the absorbance of each solution was measured at 520 nm. The absorbance of the blank sample containing the same amount of DMSO and DPPH solution was also prepared and measured. All experiments were conducted in triplicate. The scavenging potential was compared with a solvent control (0% radical scavenging) and the standard compound. Radical scavenging activity (%AA) was calculated by the following formula: (%AA) = [(A0 − A1)/A0] × 100%(3) in which (A0) is the absorbance of the blank sample and (A1) is the absorbance of the tested compound (t = 30 min).
Reactive oxygen species are a causal factor in the process of aging and the cumulative damage has been associated with AD [45]. In this study, the DPPH radical scavenging activity of the newly synthesized compounds was estimated using the Brand-Williams method.
(The DPPH test is a chemical assay of radical scavenging.)

Data set [5] deals with T5, butyrylcholinesterase (BuChE, E.C. 3.1.1.8, from equine serum) (Equus caballus, UniProt P81908).
T5 construct: butyrylcholinesterase (BuChE, E.C. 3.1.1.8, from equine serum); purchased Sigma-Aldrich (Steinheim, Germany); host or cells: equine serum (natural source)
T5 sequence (P81908 whole entry): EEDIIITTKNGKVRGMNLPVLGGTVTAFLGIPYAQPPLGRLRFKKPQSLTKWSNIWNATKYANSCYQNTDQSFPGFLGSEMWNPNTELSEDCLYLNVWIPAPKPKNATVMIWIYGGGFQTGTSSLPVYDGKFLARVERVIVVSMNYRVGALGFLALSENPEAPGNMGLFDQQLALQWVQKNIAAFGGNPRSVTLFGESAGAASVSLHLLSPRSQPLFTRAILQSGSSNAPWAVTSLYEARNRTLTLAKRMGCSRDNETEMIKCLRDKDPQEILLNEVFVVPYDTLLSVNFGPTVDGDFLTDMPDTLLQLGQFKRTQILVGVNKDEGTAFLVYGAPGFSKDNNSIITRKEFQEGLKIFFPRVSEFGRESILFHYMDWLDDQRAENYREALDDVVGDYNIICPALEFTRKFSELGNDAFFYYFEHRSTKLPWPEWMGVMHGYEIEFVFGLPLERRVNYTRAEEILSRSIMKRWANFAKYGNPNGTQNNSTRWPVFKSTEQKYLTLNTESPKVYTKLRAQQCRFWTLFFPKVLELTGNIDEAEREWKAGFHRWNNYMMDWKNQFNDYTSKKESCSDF
Kind of data set: biochemical. Particulars: means ± SD of three experiments; read-out: BuChE IC50. The method, then:
as §1, §2

The mark [6] stands for this setting: inhibitor concentration 0.25 µM.

T2 sequence (P81908 whole entry): as above
T3 sequence (P22303 32-617 isoform P22303-2 limits assumed): as the sequence (P22303 32-617 isoform P22303-2 limits assumed) above
T4 sequence (P05067 672-713 limits assumed): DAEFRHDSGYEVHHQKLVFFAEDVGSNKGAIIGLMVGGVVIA

As for `Oc1cc(O)c(-c2nc3ccccc3[nH]2)cc1Cl` [Compound 1, 4-(1H-benzimidazol-2-yl)-6-chlorobenzene-1,3-diol], the υmax at AChE (inhibitor concentration 0.25 μM) is reported as 135.14 A min^−1; on AChE (inhibitor concentration 1.0 μM), 105.26 A min^−1; on BuChE (setting [6]), 322.58 A min^−1; on BuChE (inhibitor concentration 1.2 µM), 163.93 A min^−1. Further, the “Type of AChE inhibition” value at AChE is “mixed type of inhibition”. The “Mechanism of BuChE inhibition” value at BuChE is reported as “the same relationships as in the case of AChE”. Moreover, the “Activity against AChE (in words)” value in data set [1] was “active”. In data set [1], the “Selectivity for AChE” value is 55.8. In addition, the IC50 in data set [1] was 76 ± 2 nM; in data set [2], 48000 ± 3430 nM; in data set [4], 641 ± 30 nM; in data set [5] it was 4240 ± 205 nM. Besides, the “−S (slope)” value in data set [3] is given as 3.896. In data set [3], the “log kw (intercept)” value is on record as 3.602.
As for `COc1ccc2nc(-c3ccc(O)c(C)c3O)[nH]c2c1` [Compound 5, 4-(6-Methoxy-1H-benzimidazol-2-yl)-2-methylbenzene-1,3-diol], the υmax was found to be 175.44 A min^−1 on AChE (inhibitor concentration 0.15 μM), 120.48 A min^−1 at AChE (inhibitor concentration 1.0 μM), 196.08 A min^−1 at BuChE (setting [6]) and 178.57 A min^−1 on BuChE (inhibitor concentration 0.55 µM). Besides, the “Type of AChE inhibition” value on AChE is recorded as “mixed type of inhibition”. The “Mechanism of BuChE inhibition” value at BuChE is “the same relationships as in the case of AChE”. Besides, the “Activity against AChE (in words)” value in data set [1] is given as “active”. For the same compound, the “Selectivity for AChE” value in data set [1] is recorded as 1.4. In addition, the IC50 in data set [1] stood at 86 ± 21 nM; in data set [2], 33100 ± 2070 nM; in data set [4], 627 ± 110 nM; in data set [5], 117 ± 41 nM. For the same compound, the “−S (slope)” value in data set [3] is recorded as 5.179. Further, in data set [3], the “log kw (intercept)” value is reported as 4.591.
